According to US7105492B2, “Camptothecin derivatives having antitumor activity” (priority 1999, dated 2006):
Where “and” joins values, the source holds several entries; their conditions need not be identical. Equal values may be shown once.

Assays:
A2780 ovarian ca = test: Antitumor activity on tumor models: A2780; format: in vivo, mice
From the text: (§1) This broad spectrum of anticancer activity was confirmed in mice transplanted with human tumor xenografts, including NSCLC (H460, A549), prostate ca. (JCA-1), glioblastoma (GBM/7), gastric ca. (MKN28), osteosarcoma (U2OS), ovarian ca. (A2780/Dx, A2780/DDP) and colon (HT29, CoBA) carcinomas as well as in murine lung cancer (M109) and leukaemia model (L1210).

topoisomerase i = target: T1, topoisomerase i (Homo sapiens, UniProt P11387); test: Persistence of topoisomerase I-mediated DNA cleavage after addition of 0.6 M NaCl; format: biochemical; conditions: for Reversibility / persistence of the DNA cleavages (in words): after sodium chloride (0.6 M), about 10 minutes; for PERSISTENCE (%) of DNA cleavage on selected sites: drug 10 μm, 20 minutes incubation, then sodium chloride (0.6 M), examined after about 10 minutes
T1 sequence (P11387 1-765): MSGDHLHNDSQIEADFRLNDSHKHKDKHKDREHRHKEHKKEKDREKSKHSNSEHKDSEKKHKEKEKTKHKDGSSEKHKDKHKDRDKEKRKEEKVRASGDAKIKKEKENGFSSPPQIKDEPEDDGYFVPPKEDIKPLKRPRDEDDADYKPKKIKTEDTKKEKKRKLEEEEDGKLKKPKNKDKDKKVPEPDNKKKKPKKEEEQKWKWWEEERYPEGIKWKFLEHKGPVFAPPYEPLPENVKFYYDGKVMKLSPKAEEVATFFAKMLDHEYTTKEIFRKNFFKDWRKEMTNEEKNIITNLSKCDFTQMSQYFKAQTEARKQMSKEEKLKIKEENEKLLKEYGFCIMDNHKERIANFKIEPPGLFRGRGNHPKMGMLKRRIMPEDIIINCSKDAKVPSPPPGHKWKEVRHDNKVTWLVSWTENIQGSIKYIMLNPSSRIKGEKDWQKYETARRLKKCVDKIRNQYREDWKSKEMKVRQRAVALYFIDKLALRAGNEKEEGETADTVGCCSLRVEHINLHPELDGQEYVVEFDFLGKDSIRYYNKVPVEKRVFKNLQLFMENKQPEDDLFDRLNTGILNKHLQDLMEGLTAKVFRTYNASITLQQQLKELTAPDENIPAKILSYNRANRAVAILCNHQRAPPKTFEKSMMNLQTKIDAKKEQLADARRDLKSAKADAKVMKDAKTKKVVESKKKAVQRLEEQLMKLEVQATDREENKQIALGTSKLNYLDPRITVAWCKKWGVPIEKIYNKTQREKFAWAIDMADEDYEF
Protocol: An important drawback of conventional camptothecins is the reversibility of the their bond in the ternary complex (drug-DNA-enzyme).
After 20 minutes of incubation of the drug in the reaction mixture containing labelled DNA and the purified enzyme, sodium chloride (0.6 M) was added with the scope of assisting the dissociation of the ternary complex.

JCA-1 prostate ca = test: Antitumor activity on tumor models: JCA-1; format: in vivo, mice
From the text: as §1

CoBA colon ca = test: Antitumor activity on tumor models: CoBA; format: in vivo, mice
From the text: as §1

A2780/DDP ovarian ca = test: Antitumor activity on tumor models: A2780/DDP; format: in vivo, mice
From the text: as §1

IGROV-1 ovarian ca = test: Antitumor activity on tumor models: IGROV-1; format: in vivo, mice
A2780/Dx ovarian ca = test: Antitumor activity on tumor models: A2780/Dx; format: in vivo, mice; conditions: for TVI % / no evidence of tumor at the end of the treatment lasting for about 10 days from the last administration: A2780/Dx
From the text: as §1
The high cytotoxic potency of the compounds of the present invention, herein represented in an exemplary way with one of the preferrred compounds, CPT 184, is also reflected by the potent antitumor activity. […] Moreover, the compounds of the present invention, in particular the CPT 184, were able to induce 100% CR in the A2780/DX tumor characterized by a MDR-phenotype.

HT29 colon ca = test: Antitumor activity on tumor models: HT29; format: in vivo, mice
From the text: as §1

GBM/7 glioblastoma = test: Antitumor activity on tumor models: GBM/7; format: in vivo, mice
From the text: as §1

U87 glioblastoma = test: Antitumor activity on tumor models: U87; format: in vivo, mice
lung carcinoma NCI H460 = test: Antitumoral activity in nude mice implanted s.c. with NCI H460 tumour fragments (Table 1); conditions: for Efficacy (TVI %): evaluated 5–10 days after the last treatment
Protocol: For the in vivo studies, the solubilization was carried out in 10% DMSO in bidistilled water, being impossible the solubilization in saline, and the administration for the oral route was carried out at a volume of 10 ml/kg.
Atimic nu/nu Swiss mice (Charles River, Calco, Italia), ageing 10–12 weeks were used. The animals were maintained in laminar flow rooms, according to the guidelines of the United Kingdom Co-ordination Committee Cancer Research. Experimental protocols were approved by the Ethical Committee for animal experimentation of Istituto Nazionale per lo Studio e Cura dei Tumori.
Tumour fragments of about 2×2×2 mm coming from mice to which were inoculated s.c. 10^6 cells NCI H460/topo, were implanted s.c. bilaterally in groups of 5 mice each.
Twice a week, using a Vernier caliper, the width, minimum diameter (l), length and maximum diameter (L) of the tumors were measured, in mm. The tumour volume (mm^3) was calculated according to the formula I^2×L/2. Efficacy of the molecule was evaluated as TVI percent of the treated group versus the control group according to the formula TVI%=100−(T/C×100), wherein T is the mean value of the tumour volume of the treated group and C of control one.

L1210 = murine leukemia = test: Antitumor activity on tumor models: L1210 leukemia, increase in life span; format: in vivo, mice
From the text: as §1

H460 = NSCLC = test: Antitumor activity on tumor models: H460; format: in vivo, mice
From the text: as §1

DU145 prostate ca = test: Antitumor activity on tumor models: DU145; format: in vivo, mice
[1] = cited from earlier work; for crossing of the hematoencephalic barrier (in words): in vivo

SMILES: CC[C@@]1(O)C(=O)OCc2c1cc1n(c2=O)Cc2c-1nc1ccccc1c2C=NOC(C)(C)C [CPT 184, 7-T-Butoxyiminomethylcamptothecin]
- TVI % (A2780 ovarian ca; A2780, 2 mg/kg): 100%
- no evidence of tumor at the end of the treatment lasting for about 10 days from the last administration (A2780 ovarian ca; A2780, 2 mg/kg): (1/8*)
- Reversibility / persistence of the DNA cleavages (in words) (topoisomerase i): marked persistence
- PERSISTENCE (%) of DNA cleavage on selected sites (topoisomerase i): 72%
- TVI % (JCA-1 prostate ca; JCA-1, 2 mg/kg): 98%
- no evidence of tumor at the end of the treatment lasting for about 10 days from the last administration (JCA-1 prostate ca; JCA-1, 2 mg/kg): (5/8*)
- TVI % (CoBA colon ca; 2 mg/kg): 84%
- TVI % (CoBA colon ca; 3 mg/kg): 87%
- TVI % (A2780/DDP ovarian ca; 2 mg/kg): 77%
- TVI % (A2780/DDP ovarian ca; 3 mg/kg): 90%
- TVI % (IGROV-1 ovarian ca; IGROV-1, 2 mg/kg): 93%
- TVI % (IGROV-1 ovarian ca; IGROV-1, 3 mg/kg): 96%
- CR (complete regressions) induced (A2780/Dx ovarian ca; A2780/DX tumor characterized by a MDR-phenotype): 100%
- TVI % (A2780/Dx ovarian ca; 2 mg/kg): 92%
- no evidence of tumor at the end of the treatment lasting for about 10 days from the last administration (A2780/Dx ovarian ca; 2 mg/kg): (1/8*)
- TVI % (A2780/Dx ovarian ca; 3 mg/kg): 100%
- no evidence of tumor at the end of the treatment lasting for about 10 days from the last administration (A2780/Dx ovarian ca; 3 mg/kg): (8/8*)
- TVI % (HT29 colon ca; HT29, 2 mg/kg): 92%
- TVI % (GBM/7 glioblastoma; GBM/7, 2 mg/kg): 97%
- no evidence of tumor at the end of the treatment lasting for about 10 days from the last administration (GBM/7 glioblastoma; GBM/7, 2 mg/kg): (3/10*)
- TVI % (GBM/7 glioblastoma; GBM/7, 3 mg/kg): 98%
- no evidence of tumor at the end of the treatment lasting for about 10 days from the last administration (GBM/7 glioblastoma; GBM/7, 3 mg/kg): (2/8*)
- TVI % (U87 glioblastoma; U87, 2 mg/kg): 80%
- TVI % (U87 glioblastoma; U87, 3 mg/kg): 87%
- Toxicity Body weight loss (%) (lung carcinoma NCI H460; 2 mg/kg p.o., q4d × 4): 0%
- Toxicity Lethality (lung carcinoma NCI H460; 2 mg/kg p.o., q4d × 4): 0/5
- Efficacy (TVI %) (lung carcinoma NCI H460; 2 mg/kg p.o., q4d × 4): 100%
- Toxicity Body weight loss (%) (lung carcinoma NCI H460; 5 mg/kg p.o., q10d × 6): 9%
- Toxicity Lethality (lung carcinoma NCI H460; 5 mg/kg p.o., q10d × 6): 0/4
- Efficacy (TVI %) (lung carcinoma NCI H460; 5 mg/kg p.o., q10d × 6): 99%
- ILS % = percent increase in life span (L1210 = murine leukemia; L1210, 2 mg/kg): > 400%
- cured mice alive 120 d from leukemia injection (L1210 = murine leukemia; L1210, 2 mg/kg): *** (>80% of cured mice alive 120 d from leukemia injection.)
- TVI % (H460 = NSCLC; H460, 2 mg/kg): 99%
- no evidence of tumor at the end of the treatment lasting for about 10 days from the last administration (H460 = NSCLC; H460, 2 mg/kg): (5/8*)
- TVI % (DU145 prostate ca; DU145, 2 mg/kg): 95%

SMILES: CC[C@@]1(O)C(=O)OCc2c1cc1n(c2=O)Cc2cc3ccccc3nc2-1 [Camptothecin]
- Reversibility / persistence of the DNA cleavages (in words) (topoisomerase i): almost complete reversibility of the cleavages
- PERSISTENCE (%) of DNA cleavage on selected sites (topoisomerase i): 16%
- crossing of the hematoencephalic barrier (in words) [1]: does not cross hematoencephalic barrier in significant amount

SMILES: CC[C@@]1(O)C(=O)OCc2c1cc1n(c2=O)Cc2cc3c(CN(C)C)c(O)ccc3nc2-1 [TPT, Topotecan, reference compound]
- TVI % (A2780 ovarian ca; A2780, 15 mg/kg): 96%
- Reversibility / persistence of the DNA cleavages (in words) (topoisomerase i): almost complete reversibility of the cleavages
- PERSISTENCE (%) of DNA cleavage on selected sites (topoisomerase i): 16%
- TVI % (JCA-1 prostate ca; JCA-1, 15 mg/kg): 95%
- TVI % (CoBA colon ca; 15 mg/kg): 85%
- in the cerebrospinal fluid with respect to plasma ([1]; 10 min after infusion): 30%
- lactone form hydrolysed to open ring ([1]; 30 min after infusion): 50%
- crossing of the hematoencephalic barrier (in words) [1]: crosses hematoencephalic barrier
- TVI % (A2780/DDP ovarian ca; 15 mg/kg): 92%
- TVI % (IGROV-1 ovarian ca; IGROV-1, 15 mg/kg): 89%
- TVI % (A2780/Dx ovarian ca; 15 mg/kg): 92%
- no evidence of tumor at the end of the treatment lasting for about 10 days from the last administration (A2780/Dx ovarian ca; 15 mg/kg): (2/10*)
- TVI % (HT29 colon ca; HT29, 15 mg/kg): 65%
- TVI % (GBM/7 glioblastoma; GBM/7, 15 mg/kg): 96%
- no evidence of tumor at the end of the treatment lasting for about 10 days from the last administration (GBM/7 glioblastoma; GBM/7, 15 mg/kg): (1/10*)
- TVI % (U87 glioblastoma; U87, 15 mg/kg): 82%
- Toxicity Lethality (lung carcinoma NCI H460; 10 mg/kg p.o., q4d × 4): 0/5
- Efficacy (TVI %) (lung carcinoma NCI H460; 10 mg/kg p.o., q4d × 4): 64%
- Toxicity Lethality (lung carcinoma NCI H460; 15 mg/kg p.o., q4d × 4): 0/4 and 0/5
- Efficacy (TVI %) (lung carcinoma NCI H460; 15 mg/kg p.o., q4d × 4): 94% and 89%
- ILS % = percent increase in life span (L1210 = murine leukemia; L1210, 15 mg/kg): 39%
- TVI % (H460 = NSCLC; H460, 15 mg/kg): 98%
- TVI % (DU145 prostate ca; DU145, 15 mg/kg): 77%
